Experimental data taken from ChEMBL document CHEMBL5518181, “Studies of antibacterial activity (in vitro and in vivo) and mode of action for des-acyl tridecaptins (DATs)” (Eur J Med Chem, 2024).
Converted amounts (≈) assume the structure as drawn.

How the values were obtained:
[1] = Hemolytic activity in human red blood cells at 400 ug/ml incubated for 45 mins by spectrophotometric analysis relative to control; assay type: toxicity, cell-based, Erythrocyte; settings: red blood cells (erythrocytes), at 400 µg/mL, read-out: Activity
Escherichia coli [2] = test: Antibacterial activity against wild-type Escherichia coli ATCC 25922 assessed as inhibition of bacterial growth incubated for 18 hrs in presence of 50% heat inactivated human serum; assay type: functional; settings: read-out: MIC100
Pseudomonas aeruginosa = test: Antibacterial activity against wild-type Pseudomonas aeruginosa PAO1 assessed as inhibition of bacterial growth incubated for 24 hrs; assay type: functional; settings: read-out: MIC100
Acinetobacter baumannii = test: Antibacterial activity against wild-type Acinetobacter baumannii ATCC 19606 assessed as inhibition of bacterial growth incubated for 20 hrs; assay type: functional; settings: read-out: MIC100
[3] = Cytotoxicity against human HepG2 cells incubated for 40 hrs by celltiter-glo luminescent cell viability assay; assay type: toxicity, cell-based
Escherichia coli [4] = test: Antibacterial activity against wild-type Escherichia coli ATCC 25922 assessed as inhibition of bacterial growth incubated for 18 hrs; assay type: functional; settings: read-out: MIC100
Klebsiella pneumoniae [5] = test: Antibacterial activity against wild-type Klebsiella pneumoniae ATCC 13883 assessed as inhibition of bacterial growth incubated for 18 hrs in presence of 50% heat inactivated human serum; assay type: functional; settings: read-out: MIC100
Escherichia coli [6] = test: Antibacterial activity against Escherichia coli ATCC 25922 harboring tolC knock-out assessed as inhibition of bacterial growth incubated for 18 hrs; assay type: functional; settings: read-out: MIC100
[7] = Hydrophobicity of compound assessed as %MeCN at peak elution by RP-HPLC analysis; assay type: physicochemical
Klebsiella pneumoniae [8] = test: Antibacterial activity against wild-type Klebsiella pneumoniae ATCC 13883 assessed as inhibition of bacterial growth incubated for 18 hrs; assay type: functional; settings: read-out: MIC100
Escherichia coli [9] = test: Antibacterial activity against Escherichia coli ATCC 25922 harboring hldE knock-out assessed as inhibition of bacterial growth incubated for 18 hrs; assay type: functional; settings: read-out: MIC100
Staphylococcus aureus = test: Antibacterial activity against […] assessed as inhibition of bacterial growth incubated for 18 hrs; assay type: functional; settings: ATCC 29213, read-out: MIC100

SMILES	hemolysis at 0.75 h, 400 ug/ml [1] [%]	MIC (Escherichia coli [2]) [µg/mL]	MIC (Pseudomonas aeruginosa) [µg/mL]	MIC (Acinetobacter baumannii) [µg/mL]	IC50 at 40 h [3] [µg/mL]	MIC (Escherichia coli [4]) [µg/mL]	MIC (Klebsiella pneumoniae [5]) [µg/mL]	MIC (Escherichia coli [6]) [µg/mL]	MeCN percentage at peak elution [7] [%]	MIC (Klebsiella pneumoniae [8]) [µg/mL]	MIC (Escherichia coli [9]) [µg/mL]	MIC (Staphylococcus aureus) [µg/mL]
CC[C@@H](C)[C@@H](NC(=O)[C@@H](NC(=O)[C@H](CCC(=O)O)NC(=O)[C@H](Cc1ccccc1)NC(=O)[C@@H](CCN)NC(=O)[C@H](CCN)NC(=O)[C@H](CO)NC(=O)[C@@H](Cc1c[nH]c2ccccc12)NC(=O)[C@@H](CO)NC(=O)CNC(=O)[C@@H](CCN)NC(=O)[C@H](N)C(C)C)C(C)C)C(=O)N[C@@H](C)C(=O)O	5.5	8	> 64	64 (≈ 45.9 µM)	91 (≈ 65.3 µM)	64 (≈ 45.9 µM)	8	4 (≈ 2.87 µM)	39.5	64 (≈ 45.9 µM)	8 (≈ 5.74 µM)	> 64
CC[C@H](C)[C@@H](NC(=O)[C@@H](NC(=O)[C@H](CCC(=O)O)NC(=O)[C@H](Cc1ccccc1)NC(=O)[C@@H](CCN)NC(=O)[C@H](CCN)NC(=O)[C@H](CO)NC(=O)[C@@H](Cc1c[nH]c2ccccc12)NC(=O)[C@@H](CO)NC(=O)[C@H](CC(=O)O)NC(=O)[C@@H](CCN)NC(=O)[C@H](N)C(C)C)C(C)C)C(=O)N[C@@H](C)C(=O)O	0	64	64 (≈ 44.1 µM)	> 64	13 (≈ 8.95 µM)	> 64	> 64		37.8	> 64		> 64
CC[C@H](C)[C@@H](NC(=O)[C@@H](NC(=O)[C@H](C)NC(=O)[C@H](Cc1ccccc1)NC(=O)[C@@H](CCN)NC(=O)[C@H](CCN)NC(=O)[C@H](CO)NC(=O)[C@@H](Cc1c[nH]c2ccccc12)NC(=O)[C@@H](CO)NC(=O)CNC(=O)[C@@H](CCN)NC(=O)[C@H](NC(=O)[C@H](C)N)C(C)C)C(C)C)C(=O)N[C@@H](C)C(=O)O	0.3	4	64 (≈ 45.5 µM)	> 64	67 (≈ 47.6 µM)	8 (≈ 5.68 µM)	32	8 (≈ 5.68 µM)	40.1	16 (≈ 11.4 µM)	2 (≈ 1.42 µM)	> 64
CC[C@H](C)[C@@H](NC(=O)[C@@H](NC(=O)[C@H](CCC(=O)O)NC(=O)[C@H](Cc1ccc(-c2ccccc2)cc1)NC(=O)[C@@H](CCN)NC(=O)[C@H](CCN)NC(=O)[C@H](CO)NC(=O)[C@@H](Cc1c[nH]c2ccccc12)NC(=O)[C@@H](CO)NC(=O)CNC(=O)[C@@H](CCN)NC(=O)[C@H](N)C(C)C)C(C)C)C(=O)N[C@@H](C)C(=O)O	24.5		64 (≈ 43.5 µM)	> 64	23 (≈ 15.6 µM)	8 (≈ 5.44 µM)	4	< 0.125		4 (≈ 2.72 µM)	2 (≈ 1.36 µM)	> 64
CC[C@H](C)[C@@H](NC(=O)[C@@H](NC(=O)[C@H](CCC(=O)O)NC(=O)[C@H](Cc1c[nH]c2ccccc12)NC(=O)[C@@H](CCN)NC(=O)[C@H](CCN)NC(=O)[C@H](CO)NC(=O)[C@@H](Cc1c[nH]c2ccccc12)NC(=O)[C@@H](CO)NC(=O)CNC(=O)[C@@H](CCN)NC(=O)[C@H](N)C(C)C)C(C)C)C(=O)N[C@@H](C)C(=O)O	43.7				> 170	16 (≈ 11.2 µM)				8 (≈ 5.58 µM)		
CC[C@H](C)[C@@H](NC(=O)[C@@H](NC(=O)[C@H](CCC(=O)O)NC(=O)[C@H](Cc1ccccc1)NC(=O)[C@@H](CCN)NC(=O)[C@H](CCN)NC(=O)[C@H](CO)NC(=O)[C@@H](Cc1c[nH]c2ccccc12)NC(=O)[C@@H](CCN)NC(=O)CNC(=O)[C@@H](CCN)NC(=O)[C@H](N)C(C)C)C(C)C)C(=O)N[C@@H](C)C(=O)O	0				> 170	> 64				> 64		
CC[C@H](C)[C@@H](NC(=O)[C@@H](NC(=O)[C@H](CCC(=O)O)NC(=O)[C@H](Cc1ccccc1)NC(=O)[C@@H](CCN)NC(=O)[C@H](CCN)NC(=O)[C@H](CO)NC(=O)[C@@H](Cc1c[nH]c2ccccc12)NC(=O)[C@@H](CO)NC(=O)CNC(=O)[C@@H](CCN)NC(=O)[C@H](N)C(C)(C)C)C(C)C)C(=O)N[C@@H](C)C(=O)O	13				33 (≈ 23.4 µM)	32 (≈ 22.7 µM)				16 (≈ 11.4 µM)		
CC[C@H](C)[C@@H](NC(=O)[C@@H](NC(=O)[C@H](CCC(=O)O)NC(=O)[C@H](Cc1cccc2ccccc12)NC(=O)[C@@H](CCN)NC(=O)[C@H](CCN)NC(=O)[C@H](CO)NC(=O)[C@@H](Cc1c[nH]c2ccccc12)NC(=O)[C@@H](CO)NC(=O)CNC(=O)[C@@H](CCN)NC(=O)[C@H](NC(=O)[C@H](C)N)C(C)C)C(C)C)C(=O)N[C@@H](C)C(=O)O	52.9				83 (≈ 54.8 µM)	2 (≈ 1.32 µM)				1 (≈ 0.66 µM)		
CC[C@H](C)[C@@H](NC(=O)[C@@H](NC(=O)[C@H](CCC(=O)O)NC(=O)[C@H](Cc1ccccc1)NC(=O)[C@@H](CCN)NC(=O)[C@H](CCN)NC(=O)[C@H](CO)NC(=O)[C@@H](Cc1c[nH]c2ccccc12)NC(=O)[C@@H](CO)NC(=O)CNC(=O)[C@@H](CCN)NC(=O)[C@H](NC(=O)C(F)(F)CN)C(C)C)C(C)C)C(=O)N[C@@H](C)C(=O)O	0				> 170	> 64				> 64		
CC[C@H](C)[C@@H](NC(=O)[C@@H](NC(=O)[C@H](CCC(=O)O)NC(=O)[C@H](Cc1ccccc1)NC(=O)[C@@H](CCN)NC(=O)[C@H](CCN)NC(=O)[C@H](CO)NC(=O)[C@@H](Cc1c[nH]c2ccccc12)NC(=O)[C@@H](CO)NC(=O)CNC(=O)[C@@H](CCN)NC(=O)[C@H](NC(=O)[C@H](C)NC)C(C)C)C(C)C)C(=O)N[C@@H](C)C(=O)O	5.3				> 70	8 (≈ 5.41 µM)				8 (≈ 5.41 µM)		
CC[C@H](C)[C@@H](NC(=O)[C@@H](NC(=O)[C@H](CCC(=O)O)NC(=O)[C@H](Cc1ccccc1)NC(=O)[C@@H](CCN)NC(=O)[C@H](CCN)NC(=O)[C@H](CO)NC(=O)[C@@H](Cc1c[nH]c2ccccc12)NC(=O)[C@@H](CO)NC(=O)CNC(=O)[C@@H](CCN)NC(=O)[C@@H](C)N)C(C)C)C(=O)N[C@@H](C)C(=O)O	6.4				131 (≈ 95.9 µM)	> 64				> 64		
CC[C@H](C)[C@@H](NC(=O)[C@@H](NC(=O)[C@H](CCC(=O)O)NC(=O)[C@H](Cc1ccccc1)NC(=O)[C@@H](CCN)NC(=O)[C@H](CCN)NC(=O)[C@H](CO)NC(=O)[C@@H](Cc1c[nH]c2ccccc12)NC(=O)[C@@H](C)NC(=O)CNC(=O)[C@@H](CCN)NC(=O)[C@H](N)C(C)C)C(C)C)C(=O)N[C@@H](C)C(=O)O	0				> 170	> 64				64 (≈ 46.4 µM)		
CC[C@H](C)[C@@H](NC(=O)[C@@H](NC(=O)[C@H](CCC(=O)O)NC(=O)[C@H](Cc1ccccc1)NC(=O)[C@@H](CCN)NC(=O)[C@H](CN)NC(=O)[C@H](CO)NC(=O)[C@@H](Cc1c[nH]c2ccccc12)NC(=O)[C@@H](CO)NC(=O)CNC(=O)[C@@H](CCN)NC(=O)[C@H](N)C(C)C)C(C)C)C(=O)N[C@@H](C)C(=O)O	1.5				> 170	64 (≈ 46.4 µM)				32 (≈ 23.2 µM)		
CC[C@H](C)[C@@H](NC(=O)[C@H](C)NC(=O)[C@H](CCC(=O)O)NC(=O)[C@H](Cc1ccccc1)NC(=O)[C@@H](CCN)NC(=O)[C@H](CCN)NC(=O)[C@H](CO)NC(=O)[C@@H](Cc1c[nH]c2ccccc12)NC(=O)[C@@H](CO)NC(=O)CNC(=O)[C@@H](CCN)NC(=O)[C@H](NC(=O)[C@H](C)N)C(C)C)C(=O)N[C@@H](C)C(=O)O	5.5				51 (≈ 35.5 µM)	32 (≈ 22.3 µM)				32 (≈ 22.3 µM)		
CC[C@H](C)[C@@H](NC(=O)[C@@H](NC(=O)[C@H](CCC(=O)O)NC(=O)[C@H](Cc1ccccc1)NC(=O)[C@@H](CCN)NC(=O)[C@H](CCN)NC(=O)[C@H](C)NC(=O)[C@@H](Cc1c[nH]c2ccccc12)NC(=O)[C@@H](CO)NC(=O)CNC(=O)[C@@H](CCN)NC(=O)[C@H](NC(=O)[C@H](C)N)C(C)C)C(C)C)C(=O)N[C@@H](C)C(=O)O	0				> 170	4 (≈ 2.76 µM)				8 (≈ 5.52 µM)		
CC[C@H](C)[C@@H](NC(=O)[C@@H](NC(=O)[C@H](CCC(=O)O)NC(=O)[C@H](Cc1ccccc1)NC(=O)[C@@H](CCN)NC(=O)[C@H](CCN)NC(=O)[C@H](CO)NC(=O)[C@@H](Cc1c[nH]c2ccccc12)NC(=O)[C@@H](CO)NC(=O)CNC(=O)[C@@H](CN)NC(=O)[C@H](NC(=O)[C@H](C)N)C(C)C)C(C)C)C(=O)N[C@@H](C)C(=O)O	0				> 170	> 64				> 64		
CC[C@H](C)[C@@H](NC(=O)[C@@H](NC(=O)[C@H](CCC(=O)O)NC(=O)[C@H](Cc1ccccc1)NC(=O)[C@@H](CCN)NC(=O)[C@H](CCN)NC(=O)[C@H](CO)NC(=O)[C@@H](Cc1c[nH]c2ccccc12)NC(=O)[C@@H](CO)NC(=O)[C@H](C)NC(=O)[C@@H](CCN)NC(=O)[C@H](NC(=O)[C@H](C)N)C(C)C)C(C)C)C(=O)N[C@@H](C)C(=O)O	31.9				74 (≈ 50 µM)	16 (≈ 10.8 µM)				32 (≈ 21.6 µM)		
